The record followed here is paper PMC8162404, “Proteomimetic surface fragments distinguish targets by function” (Chemical Science, 2020).

The target in experiment [1] is T1, Gal-1 (Homo sapiens, UniProt P09382).
T1 construct: made in house; host or cells: E. coli BL21(DE3)
The experiment is described as follows: Competition pull-down with lactose. It is filed as binding. As to conditions: H14 library; lactose 10 mM; read-out: Surface mapping KD (apparent), competition. In a few lines:
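His6-tagged proteins immobilized on Co-NTA resin at 64 µM final with 64-member LSM foldamer sublibraries (1 M each, as printed) in pH 7.4 HEPES/NaCl buffers (Ca2+/TCEP per target), 30 min RT; competitor peptides 200 µM final, lactose 10 mM for Gal-1. Bound fractions from LC-MS loss vs protein-free resin; KD assuming 1:1 binding.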

Experiment [2] concerns the target T2, CaM (Bos taurus, UniProt P62157).
T2 construct: made in house; host or cells: E. coli BL21 (DE3)
The experiment in a line: Competition pull-down with native ligand TRPV1-Ct15. To be noted: H14 library; competitor peptide 200 µM; read-out: Surface mapping KD (apparent), competition. It is filed as binding, bovine.

The target of experiment [3] is T3, S100A4 (Homo sapiens, UniProt P26447).
T3 construct: made in house; host or cells: Escherichia coli BL21(DE3)
The experiment is described as follows: Competition pull-down with native ligand NMIIA (1893–1923). The class given is binding. To be noted: H14 library; competitor peptide 200 µM; read-out: Surface mapping KD (apparent), competition.

Experiment [4] deals with T2, CaM. The experiment in a line: Pull-down assay with immobilized protein and LSM libraries. It is filed as binding, bovine. As to conditions: H14 library; 1:2 stoichiometry assumed; read-out: Surface mapping KD (apparent). Put shortly: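 His-tagged protein immobilized on Co-NTA resin, equilibrated 30 min at room temperature with LSM sublibraries (64 members, […]), equimolar protein to total probe. CaM buffer: 20 mM HEPES pH 7.4, 150 mM NaCl, 5 mM CaCl2. Bound fractions from HPLC-MS loss of unbound probe versus protein-free resin control; Kd derived.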

Experiment [5] concerns the target T4, RecQ-WH (Escherichia coli, UniProt P15043).
T4 construct: coding for residues 408– 523 of E. coli RecQ; made in house; host or cells: E. coli BL21(DE3)
The experiment is described as follows: Competition pull-down with native ligand SSB-Ct8. It is filed as binding, E. coli. To be noted: H14 library; competitor peptide 200 µM; read-out: Surface mapping KD (apparent), competition.

Experiment [6] addresses T4, RecQ-WH. The experiment is described as follows: Pull-down assay with immobilized protein and LSM libraries. Also noted: species or system E. coli. To be noted: H14 library; 1:1 binding assumed; read-out: Surface mapping KD (apparent). In a few lines: (§1)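 His-tagged protein immobilized on Co-NTA resin (64 µM) in 20 mM HEPES pH 7.4, 150 mM NaCl, equilibrated 30 min at room temperature with foldamer LSM sublibraries at equimolar total concentration. Unbound fractions quantified by HPLC-MS versus protein-free resin control; apparent KD assumes 1:1 binding.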

In experiment [7] the target is T5, S100B (Homo sapiens, UniProt P04271).
T5 construct: made in house; host or cells: Escherichia coli BL21(DE3)
T5 sequence (P04271 1-92): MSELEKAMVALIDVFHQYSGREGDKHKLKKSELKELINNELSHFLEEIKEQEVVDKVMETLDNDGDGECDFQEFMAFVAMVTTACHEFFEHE
The description is as above. The class given is binding. As to conditions: for Kd: H14 library, 1:1 binding assumed, read-out: Surface mapping KD (apparent); for Affinity class of probe (high, medium, low) in pull-down: H14 probes selected for validation. In a few lines: (§2)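 Buffers were HEPES pH 7.4 with 150 mM NaCl, plus 1 mM TCEP and 1 mM CaCl2 (50 mM HEPES) for S100A4 and S100B, 1 mM TCEP for Gal-1, and no additive for RecQ-WH. Immobilized protein at 64 µM was equilibrated 30 min with the LSM sublibrary, and unbound probes were measured by LC-MS.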

The target in experiment [8] is T3, S100A4. The description is as above. As to conditions: for Kd: H14 library, 1:1 binding assumed, read-out: Surface mapping KD (apparent); for Affinity class of probe (high, medium, low) in pull-down: H14 probes selected for validation. The class given is binding. Put shortly:
as §2

For experiment [9], the target named is T1, Gal-1. Described as above. It is filed as binding. To be noted: H14 library; 1:1 binding assumed; read-out: Surface mapping KD (apparent). In a few lines: as §1
For experiment [10], the target named is T5, S100B. The experiment in a line: Competition pull-down with native ligand RSK1 (689–735). The class given is binding. To be noted: H14 library; competitor peptide 200 µM; read-out: Surface mapping KD (apparent), competition.

T3 sequence (P26447 whole entry): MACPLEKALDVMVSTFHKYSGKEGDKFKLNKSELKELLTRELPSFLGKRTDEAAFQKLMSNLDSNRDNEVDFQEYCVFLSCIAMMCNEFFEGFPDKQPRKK
T1 sequence (P09382 whole entry): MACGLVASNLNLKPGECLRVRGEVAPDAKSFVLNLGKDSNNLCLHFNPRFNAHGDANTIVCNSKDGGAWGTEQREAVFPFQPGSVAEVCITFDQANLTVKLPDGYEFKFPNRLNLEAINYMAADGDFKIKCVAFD
T4 sequence (P15043 408-523): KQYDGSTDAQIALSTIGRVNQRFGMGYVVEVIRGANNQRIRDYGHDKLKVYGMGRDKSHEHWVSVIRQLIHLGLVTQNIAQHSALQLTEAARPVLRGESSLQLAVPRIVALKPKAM

For the compound `CC[C@H](C)[C@@H](CC(=O)N[C@H]1CCCC[C@@H]1C(=O)N[C@H]1CCCC[C@@H]1C(=O)N[C@H](CC(=O)N[C@H]1CCCC[C@@H]1C(N)=O)Cc1ccccc1)NC(=O)[C@H]1CCCC[C@@H]1N` [H14 IF], the Kd stood at 53 µM in [1]; 102 µM in [2]; 162 µM in experiment [3]; 9 µM in experiment [4]; 439 µM in experiment [5]; 186 µM in [6]. The Kd in experiment [7] is 9 µM; in experiment [8], 2 µM; in [9], 33 µM; in experiment [10], 64 µM. Moreover, the “Affinity class of probe (high, medium, low) in pull-down” value (shortened to “Affinity class of probe”) in [7] and in experiment [8] was “high” in each case.

For `CC[C@H](C)[C@@H](CC(=O)N[C@H]1CCCC[C@@H]1C(N)=O)NC(=O)[C@H]1CCCC[C@@H]1NC(=O)[C@H]1CCCC[C@@H]1NC(=O)C[C@@H](NC(=O)[C@H]1CCCC[C@@H]1N)[C@@H](C)CC` [H14 II], the Kd was 50 µM in experiment [1]; 280 µM in experiment [2]; 101 µM in experiment [3]; 9 µM in experiment [4]; 364 µM in experiment [5]; 160 µM in [6]. For the same compound, the Kd in experiment [7] was 19 µM; in experiment [8], 2 µM; in experiment [9], 24 µM; in experiment [10], 147 µM.

As to `CC[C@H](C)[C@@H](CC(=O)N[C@H]1CCCC[C@@H]1C(=O)N[C@H]1CCCC[C@@H]1C(=O)N[C@H](CC(=O)N[C@H]1CCCC[C@@H]1C(N)=O)CC(C)C)NC(=O)[C@H]1CCCC[C@@H]1N` [H14 IL], the Kd in experiment [1] is 50 µM; in experiment [2] it was 276 µM; in experiment [3] it was 101 µM; in [4], 9 µM; in [5], 266 µM; in experiment [6], 206 µM. Moreover, the Kd came to 19 µM in [7], 2 µM in experiment [8], 24 µM in experiment [9] and 147 µM in experiment [10]. Also, the “Affinity class of probe” value in experiment [7] and in experiment [8] was “high” throughout.

In the case of `CC[C@H](C)[C@@H](CC(=O)N[C@H]1CCCC[C@@H]1C(=O)N[C@H]1CCCC[C@@H]1C(=O)N[C@H](CC(=O)N[C@H]1CCCC[C@@H]1C(N)=O)Cc1c[nH]c2ccccc12)NC(=O)[C@H]1CCCC[C@@H]1N` [H14 IW], the Kd in experiment [1] came to 65 µM; in experiment [2] it was 88 µM; in experiment [3] it was 244 µM; in experiment [4] it was 0.4 µM; in experiment [5], 315 µM; in [6] it was 195 µM. The Kd in experiment [7] worked out at 21 µM; in experiment [8], 8 µM; in experiment [9], 38 µM; in experiment [10], 67 µM.

As for `CC(C)C[C@@H](CC(=O)N[C@H]1CCCC[C@@H]1C(=O)N[C@H]1CCCC[C@@H]1C(=O)N[C@H](CC(=O)N[C@H]1CCCC[C@@H]1C(N)=O)Cc1ccccc1)NC(=O)[C@H]1CCCC[C@@H]1N` [H14 LF], the Kd is 43 µM in experiment [1]; 162 µM in experiment [2]; 140 µM in experiment [3]; 11 µM in experiment [4]; 439 µM in experiment [5]; 186 µM in experiment [6]. Further, the Kd in experiment [7] turned out to be 11 µM; in [8] it was 3 µM; in experiment [9], 25 µM; in experiment [10] it was 71 µM.

Take `CC[C@H](C)[C@@H](CC(=O)N[C@H]1CCCC[C@@H]1C(N)=O)NC(=O)[C@H]1CCCC[C@@H]1NC(=O)[C@H]1CCCC[C@@H]1NC(=O)C[C@H](CC(C)C)NC(=O)[C@H]1CCCC[C@@H]1N` [H14 LI]: the Kd in experiment [1] came out at 50 µM; in [2], 280 µM; in [3], 101 µM; in experiment [4], 16 µM; in [5], 355 µM; in experiment [6], 160 µM. Besides, the Kd in experiment [7] came out at 19 µM; in experiment [8] it was 2 µM; in [9], 24 µM; in experiment [10], 147 µM.

As to `CC(C)C[C@@H](CC(=O)N[C@H]1CCCC[C@@H]1C(N)=O)NC(=O)[C@H]1CCCC[C@@H]1NC(=O)[C@H]1CCCC[C@@H]1NC(=O)C[C@H](CC(C)C)NC(=O)[C@H]1CCCC[C@@H]1N` [H14 LL], the Kd in [1] turned out to be 32 µM; in experiment [2] it was 276 µM; in [3], 117 µM; in experiment [4], 16 µM; in experiment [5] it was 253 µM; in [6] it was 206 µM. Further, the Kd in experiment [7] worked out at 28 µM; in experiment [8], 1 µM; in experiment [9] it was 17 µM; in [10], 147 µM.

For the compound `CC(C)C[C@@H](CC(=O)N[C@H]1CCCC[C@@H]1C(=O)N[C@H]1CCCC[C@@H]1C(=O)N[C@H](CC(=O)N[C@H]1CCCC[C@@H]1C(N)=O)Cc1c[nH]c2ccccc12)NC(=O)[C@H]1CCCC[C@@H]1N` [H14 LW], the Kd came out at 65 µM in experiment [1]; 88 µM in experiment [2]; 244 µM in experiment [3]; 0.4 µM in experiment [4]; 315 µM in [5]; 195 µM in experiment [6]. In addition, the Kd in experiment [7] was found to be 21 µM; in experiment [8], 8 µM; in [9], 38 µM; in [10], 67 µM.

`CC[C@H](C)[C@@H](CC(=O)N[C@H]1CCCC[C@@H]1C(N)=O)NC(=O)[C@H]1CCCC[C@@H]1NC(=O)[C@H]1CCCC[C@@H]1NC(=O)C[C@H](Cc1c[nH]c2ccccc12)NC(=O)[C@H]1CCCC[C@@H]1N` [H14 WI]: the Kd in experiment [1] was determined as 105 µM; in experiment [2], 55 µM; in experiment [3] it was 255 µM; in experiment [4] it was 1 µM; in experiment [5] it was 142 µM; in experiment [6] it was 68 µM. For the same compound, the Kd in experiment [7] came to 12 µM; in [8], 10 µM; in experiment [9], 71 µM; in experiment [10], 123 µM.

With `CC(C)C[C@@H](CC(=O)N[C@H]1CCCC[C@@H]1C(N)=O)NC(=O)[C@H]1CCCC[C@@H]1NC(=O)[C@H]1CCCC[C@@H]1NC(=O)C[C@H](Cc1c[nH]c2ccccc12)NC(=O)[C@H]1CCCC[C@@H]1N` [H14 WL], the Kd amounted to 105 µM in experiment [1]; 55 µM in [2]; 255 µM in experiment [3]; 1 µM in experiment [4]; 142 µM in [5]; 68 µM in experiment [6]. For the same compound, the Kd in experiment [7] is 12 µM; in experiment [8], 10 µM; in experiment [9], 71 µM; in [10], 123 µM. Besides, the “Affinity class of probe” value in experiment [7] and in experiment [8] was “high” each time.

Turning to `NC(=O)[C@H]1CCCC[C@@H]1NC(=O)C[C@H](Cc1c[nH]c2ccccc12)NC(=O)[C@H]1CCCC[C@@H]1NC(=O)[C@H]1CCCC[C@@H]1NC(=O)C[C@H](Cc1c[nH]c2ccccc12)NC(=O)[C@H]1CCCC[C@@H]1N` [H14 WW], the Kd in [1] was found to be 51 µM; in experiment [2], 35 µM; in [3] it was 462 µM; in [4], 1.2 µM; in [5] it was 84 µM; in experiment [6], 40 µM. The Kd was 19 µM in [7], 23 µM in [8], 30 µM in experiment [9] and 138 µM in [10]. The “Affinity class of probe” value in experiment [7] is “high”; in experiment [8], “medium”.
